This test in a line: MR relaxivity (T1/T2) on 3.0 Tesla MRI scanner. The test is classed as physicochemical. The procedure: Thermogravimetric analysis (TGA) was performed using a Shimadzu TGA-50 (Shimadzu Corp., Kyoto, Japan) equipped with a platinum pan and heated at a rate of 3° C./min under air. A Hitachi 4700 field emission scanning electron microscope (SEM; Hitachi Ltd., Tokyo, Japan) and a JEM 100CX-II transmission electron microscope (JEOL Ltd., Tokyo, Japan) were used to determine particle size and morphology. Scanning electron microscope (SEM) images of the nanoparticles were taken on glass substrate. A Cressington 108 Auto Sputter Coater (Cressington Scientific Instruments, Ltd., Watford, United Kingdom) equipped with an Au/Pd (80/20) target and M™-10 thickness monitor was used to coat the sample with approximately 5 nm of conductive layer before taking SEM images. Gd^3+ ion concentration was measured on a SpectraSpan7 Direct Current Plasma (DCP) Spectrometer (Applied Research Laboratories, La Brea, Calif., United States of America). […] T1 and T2 values were determined on a Bruker 3.0 Tesla full body Magnetic Resonance Imaging (MRI) scanner (Bruker BioSpin MRI GmbH, Ettlingen, Germany). […] Fluorescence microscope images were taken with a Zeiss Axiovert 100 TV Fluorescence Microscope (Carl Zeiss, Inc., Thornwood, N.Y., United States of America) using a FITC filter. T1 values were obtained using the standard inversion-recovery method, whereas T2 values were determined using spin-echo pulse sequences. […]

For the substance “bis(aminopropyl-triethoxysilyl)diethylenetriamine pentaacetate gadodiamide [Gd—Si-DTPA complex]”, under “per mM of Gd^3+ (metal ion), 3.0 Tesla scanner, water or 0.1% Xanthan gum”, the “longitudinal relaxivity (r1)” value is 6.2 s⁻¹.
“gadolinium (aminopropyltrimethoxysilyl) diethylenetriamine tetraacetate [Gd—Si-DTTA complex]”: the r1 (molecular complex, for comparison with 1) is on record as 6.8 s^−1 mM^−1 Gd^3+.

The record behind these values is patent US20090317335A1, “Hybrid Nanomaterials as Multimodal Imaging Contrast Agents” (priority 2006, published 2009).
